The record followed here is the Deep4Chem optical property database.

The structures appear in SMILES notation.

This series in a line: solvent given as SMILES.
[1] abbreviates: in O=P(c1ccccc1)(c1ccccc1)c1ccccc1Oc1ccccc1P(=O)(c1ccccc1)c1ccccc1.

Take `COc1ccc(C2=CC(c3cc(OC)cc(OC)c3)=[O+][B-](F)(F)O2)cc1`: the emission maximum reads like this: (in CC#N) 587.1 nm; (in CC(C)=O) 556.04 nm; (in CCCCCC) 410.21 nm; (in Cc1ccccc1) 450.94 nm; (in ClCCl) 525 nm.
For the compound `c1ccc2c(c1)-c1ccccc1[Si]21c2ccccc2-c2cc3c(cc21)-c1ccccc1[Si]31c2ccccc2-c2ccccc21`, where the note is “in ClCCl”, the emission maximum amounted to 408 nm.
Regarding `CCn1c2ccccc2c2c(C#N)c3c(ccc4c3cnn4C)nc21`, under “in CCOC(C)=O”, the emission maximum turned out to be 476 nm.
On to `COc1ccc(-n2c3ccccc3c3cc(/C=C/C(=C(C#N)C#N)c4ccccc4)ccc32)cc1`, for which the emission maximum by setting is: (in C1CCOC1) 560 nm; (in CC#N) 594 nm; (in CC(C)=O) 582 nm; (in CCOC(C)=O) 550 nm; (in CO) 597 nm; (in CS(C)=O) 601 nm. For the same compound, the emission maximum reads like this: (in Cc1ccccc1) 526 nm; (in ClC(Cl)Cl) 554 nm.
Consider `CC(C)(C)c1ccc2c(c1)c1cc(C(C)(C)C)ccc1n2-c1ccc(-n2c3ccc(C(C)(C)C)cc3c3cc(C(C)(C)C)ccc32)c(C(=O)c2ccncc2)c1`, for which the emission maximum runs as follows: (in C1CCOC1) 519.49 nm; (in CCCCCC) 476.84 nm; (in Cc1ccccc1) 508 nm; (in ClCCl) 561.4 nm.
`C[Si]1(C)c2ccccc2-c2ccccc21` yielded an emission maximum (in ClCCl) of 359 nm.
`CC(C)(C)c1ccc(N(c2ccc(C(C)(C)C)cc2)c2ccc(S(=O)(=O)c3ccc(N(c4ccc(C(C)(C)C)cc4)c4ccc(C(C)(C)C)cc4)cc3)cc2)cc1`: the emission maximum is, setting by setting: (in Cc1ccccc1) 419 nm; under setting [1], 430 nm.
Turning to `Nc1ncnc2c1c(C#Cc1ccc3ccccc3c1)cn2[C@H]1C[C@H](O)[C@@H](CO)O1`, the emission maximum runs as follows: (in CC#N) 400 nm; (in CCO) 371 nm; (in CCOC(C)=O) 383 nm; (in CO) 377 nm; (in ClC(Cl)Cl) 374 nm.
As for `Cc1ccccc1C1=C2C=c3c(oc4ccccc34)=[N+]2[B-](F)(F)n2c1cc1c3ccccc3oc12`, the emission maximum reads like this: (in C1CCCCC1) 595.5 nm; (in CCOC(C)=O) 595 nm; (in CO) 595 nm.
Under “in ClCCl”, `COc1ccc(-c2c3ccccc3c(-c3ccc(OC)cc3)c3cc4ccccc4cc23)cc1` displayed an emission maximum of 511 nm.
In the case of `[O-][n+]1c(/C=C/C=C/c2ccccc2)nc(N2CCOCC2)c2c1CCCC2`, the emission maximum (in ClCCl) turned out to be 546 nm.
Where the note is “in CCO”, `CC(C)(C)OC(=O)NCC(=O)OCc1ccc2c3cccc4cccc(c5cccc1c52)c43` registered an emission maximum of 446 nm.
Regarding `CCCCOc1ccc(-c2cc3c(o2)c(-c2ccc(OCCCC)cc2)c2n3[B-](F)(F)[N+]3=Cc4c(-c5ccc(OCCCC)cc5)c5oc(-c6ccc(OCCCC)cc6)cc5n4[B-](F)(F)[N+]3=C2)cc1`, the emission maximum is given as 659 nm (in C1CCOC1); 667 nm (in CN(C)C=O); 672 nm (in CS(C)=O); 660 nm (in Cc1ccccc1); 660 nm (in ClC(Cl)Cl); 661 nm (in ClCCl).
Take `O=c1c2cc(F)c(O)cc2oc2cc(N3CCCCC3)c(F)cc12`: for the setting “in CCO”, the emission maximum came to 445 nm.
For the compound `c1ccc(CO[Si]23n4c5c6ccccc6c4/N=C4N=C(/N=c6/c7ccccc7c(n62)=c2c6ccccc6c(n23)=N5)c2ccccc2\4)cc1` (centres undefined), for the setting “in CN(C)C=O”, the emission maximum is 671 nm.
Under “in C1CCOC1”, `c1ccc2c(c1)Cc1c-2sc2c1Cc1ccccc1-2` returned an emission maximum of 385 nm.
Turning to `CC1(C)CCc2c(c3ccccc3c3nc4c(nc23)c2c(c3ccccc34)OC(C)(C)CC2)O1`, the emission maximum reads like this: (in C1CCCCC1) 434.97 nm; (in C1COCCO1) 443.26 nm; (in CC#N) 449.03 nm; (in CC(C)O) 448.03 nm; (in CCCCCC) 434.22 nm; (in ClC(Cl)Cl) 446.43 nm. This compound also came in with an emission maximum (in c1ccccc1) of 441.7 nm.
As to `Cc1ccccc1C1=C2C=c3c(oc4c3ccc3ccccc34)=[N+]2[B-](F)(F)n2c1cc1c3ccc4ccccc4c3oc12`, the emission maximum reads like this: (in C1CCCCC1) 625 nm; (in CCOC(C)=O) 626.5 nm; (in CO) 625 nm.
With `COC(=O)c1ccc(C#Cc2ccc(N(C)C)cc2)cc1`, the emission maximum is 426 nm (in C1CCCCC1); 482 nm (in C1CCOC1); 450 nm (in C1COCCO1); 464.51 nm (in CC1CCCO1); 544.01 nm (in CC#N); 426.99 nm (in CC(C)=O). The emission maximum by setting is: (in CC(C)CC(C)(C)C) 377.5 nm; (in CC(C)O) 441.5 nm; (in CCCCCCCCCCCCCCCC) 370 nm; (in CCCCCCCCCCCCCCCCCl) 382.5 nm; (in CCOC(C)=O) 470.5 nm; (in CCOCC) 458.51 nm. Moreover, the emission maximum is on record as 524 nm (in CN(C)C=O), 465.01 nm (in CO), 548.49 nm (in CS(C)=O) and 381 nm (in Cc1ccccc1).
`CN(C)c1ccc(-c2cc3c(ccc4c([N+](=O)[O-])cccc43)c(=O)o2)cc1`: the emission maximum is, setting by setting: (in CC(C)=O) 530 nm; (in CCOC(C)=O) 624 nm; (in CN(C)C=O) 546 nm; (in CO) 548 nm; (in ClC(Cl)Cl) 634 nm.
Under “in CN(C)C=O”, `NCCCCCCCCCCCCN1C(=O)c2ccc3c4ccc5c6c(ccc(c7ccc(c2c37)C1=O)c64)C(=O)NC5=O` returned an emission maximum of 534 nm.
Turning to `CC(C)(C)NC(=O)c1cccc2ccc3c4ccc(Cl)cc4c4cc(Cl)ccc4c3c12`, the emission maximum (in ClCCl) came to 415 nm.
With `CC(C)(C)c1ccc2c(c1)c1cc(C(C)(C)C)ccc1n2-c1cc[n+]2c(c1)-c1ccccc1O[B-]2(F)F`, the emission maximum runs as follows: (in Cc1ccccc1) 473 nm; under setting [1], 488 nm.
`COC(=O)c1noc(-c2ccccc2)c1Br` had an emission maximum (in C1CCCCC1) of 344 nm.
The compound `Cc1cc2nc3c(=O)[nH]c(=O)nc-3n(C)c2cc1C` returned an emission maximum (in CC#N) of 533 nm.
Take `CCOC(=O)/C(C#N)=C\c1ccc2c(c1)c1ccccc1n2-c1ccc(C)cc1`: the emission maximum (in C1CCOC1) was found to be 461 nm; the emission maximum (in CC#N) worked out at 508 nm; the emission maximum (in CC(C)=O) was 503 nm; the emission maximum (in CCOC(C)=O) is recorded as 460 nm; the emission maximum (in CO) came to 495 nm; the emission maximum (in CS(C)=O) worked out at 503 nm. The same compound yielded an emission maximum (in Cc1ccccc1) of 444 nm and an emission maximum (in ClC(Cl)Cl) of 482 nm.
For the setting “in O”, `O=S(=O)([O-])c1ccc([O-])c2ccccc12` showed an emission maximum of 435 nm.
As for `Cc1ccc2nc3c(=O)[nH]c(=O)[nH]c3nc2c1`, the emission maximum came out at 426 nm (in CC#N) and 425 nm (in ClCCCl).
For `F[B-]1(F)OC(c2ccc(Br)cc2)=Cc2c3ccccc3cc[n+]21`, the emission maximum (in ClC(Cl)Cl) came out at 466.4 nm.
For the setting “in ClCCl”, `F[B-]1(F)N2C=CN=CC2=[N+]2[N+]1=Cc1c(-c3ccccc3)cc(-c3cccs3)n1[B-]2(F)F` had an emission maximum of 566 nm.
For the compound `Cc1nc2c(ccc3c2sc(/C=C/c2ccc(N(CCO)CCO)cc2)[n+]3C)s1`, the emission maximum runs as follows: (in CO) 601 nm; (in ClC(Cl)Cl) 603 nm.
